{
  "source": "patent US10899733B2",
  "about": "“Inhibitors of PARPs that catalyze mono-ADP-ribosylation” (OREGON HEALTH & SCIENCE UNIVERSITY, priority 2017, dated 2021)",
  "assay_type_in_all_cases": "biochemical",
  "key": {"PARP10cat": {"biological_target": "T1, PARP10cat (Homo sapiens, UniProt Q53GL7)", "T1 sequence (Q53GL7 806-1025 limits assumed)": "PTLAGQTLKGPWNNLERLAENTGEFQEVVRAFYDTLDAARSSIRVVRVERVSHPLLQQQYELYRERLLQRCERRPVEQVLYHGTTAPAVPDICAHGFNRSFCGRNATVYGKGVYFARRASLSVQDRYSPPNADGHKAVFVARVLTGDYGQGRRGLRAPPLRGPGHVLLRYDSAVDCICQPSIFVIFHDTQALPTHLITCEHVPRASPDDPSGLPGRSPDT", "assay": "Inhibition of PARP10cat-mediated ADP-ribosylation of SRPK2 using NAD+ (100 μM)"}, "PARP14cat-wwe": {"biological_target": "T2, PARP14cat-wwe (Homo sapiens, UniProt Q460N5)", "T2 construct": "PARP14cat-wwe", "T2 sequence (Q460N5 1523-1801)": "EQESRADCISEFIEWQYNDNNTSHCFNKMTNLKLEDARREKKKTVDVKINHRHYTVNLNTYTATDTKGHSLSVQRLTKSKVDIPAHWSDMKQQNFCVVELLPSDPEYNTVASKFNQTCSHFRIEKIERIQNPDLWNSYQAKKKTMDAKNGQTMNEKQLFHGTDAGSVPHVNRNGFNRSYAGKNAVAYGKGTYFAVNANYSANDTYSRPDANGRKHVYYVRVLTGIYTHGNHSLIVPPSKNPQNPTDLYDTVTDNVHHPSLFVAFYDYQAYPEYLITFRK", "assay": "PARP panel: ADP-ribosylation of SRPK2 using 6-a-NAD+", "conditions": "6-a-NAD+", "description": "(§1) We screened 22 against poly-ADPr PARPs (PARPs 1, 2, and PARP5b) and mono-ADPr PARPs (PARPs 3, 4, 10, 11, 14, and 15) in an assay that measures ADP-ribosylation of SRPK2 using an N^6-alkyne tagged NAD^+ (6-a-NAD^+), a clickable NAD^+ analogue.{Jiang et al., 2010, J. Am. Chem. Soc. […] The observed selectivity is most likely due to the differences in the last position of the H-Y-E catalytic triad of these enzymes versus the H-Y-I triad found in PARP10. {Hottiger et al., 2010, Trends Biochem. Sci. 35, pp. 208-219} The glutamate (E988 in PARP1) in PARPs 1-4 and PARP 5b most likely clash with the pyridiny-4-yl group at the 6-position of 22, while PARP10 contains an isoleucine (1978) at this position that can accommodate this group (FIG. 1B)."}, "PARP5bcat": {"biological_target": "T3, PARP5bcat (Homo sapiens, UniProt Q9H2K2)", "T3 construct": "PARP5bcat", "T3 sequence (Q9H2K2 959-1164)": "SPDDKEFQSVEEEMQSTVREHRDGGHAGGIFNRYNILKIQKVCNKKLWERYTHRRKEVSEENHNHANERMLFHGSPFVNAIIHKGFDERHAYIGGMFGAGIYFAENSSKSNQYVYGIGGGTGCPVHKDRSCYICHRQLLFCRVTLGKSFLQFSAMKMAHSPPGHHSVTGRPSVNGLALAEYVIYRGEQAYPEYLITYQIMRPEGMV", "assay": "PARP panel: ADP-ribosylation of SRPK2 using 6-a-NAD+", "description": "as §1"}, "PARP8": {"biological_target": "T4, PARP8 (Homo sapiens, UniProt Q8N3A8)", "T4 sequence (Q8N3A8 1-854)": "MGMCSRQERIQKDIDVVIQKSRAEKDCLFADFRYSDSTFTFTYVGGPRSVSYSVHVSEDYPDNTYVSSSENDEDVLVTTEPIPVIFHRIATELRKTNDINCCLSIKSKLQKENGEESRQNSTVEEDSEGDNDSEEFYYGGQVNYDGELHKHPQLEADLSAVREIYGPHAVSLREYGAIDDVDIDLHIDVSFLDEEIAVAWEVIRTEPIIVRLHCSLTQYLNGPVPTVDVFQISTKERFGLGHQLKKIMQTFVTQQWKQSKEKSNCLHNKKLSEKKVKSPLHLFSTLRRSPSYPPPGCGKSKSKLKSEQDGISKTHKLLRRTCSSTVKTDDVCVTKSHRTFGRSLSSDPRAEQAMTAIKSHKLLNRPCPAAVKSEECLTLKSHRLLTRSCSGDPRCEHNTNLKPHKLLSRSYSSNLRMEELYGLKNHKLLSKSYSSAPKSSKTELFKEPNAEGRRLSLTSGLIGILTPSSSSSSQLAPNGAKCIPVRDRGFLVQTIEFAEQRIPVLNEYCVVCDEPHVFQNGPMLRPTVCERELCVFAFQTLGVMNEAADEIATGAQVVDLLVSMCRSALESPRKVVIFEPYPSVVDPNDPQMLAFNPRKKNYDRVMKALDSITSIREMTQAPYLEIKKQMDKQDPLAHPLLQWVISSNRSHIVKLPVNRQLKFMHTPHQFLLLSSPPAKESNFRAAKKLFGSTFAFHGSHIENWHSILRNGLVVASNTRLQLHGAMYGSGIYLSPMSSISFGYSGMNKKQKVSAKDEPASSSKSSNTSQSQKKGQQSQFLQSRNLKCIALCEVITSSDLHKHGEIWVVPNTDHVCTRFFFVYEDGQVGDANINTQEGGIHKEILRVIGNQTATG", "assay": "PARP panel: ADP-ribosylation of SRPK2 using 6-a-NAD+"}, "PARP12": {"biological_target": "T5, PARP12 (Homo sapiens, UniProt Q9H0J9)", "T5 sequence (Q9H0J9 1-701)": "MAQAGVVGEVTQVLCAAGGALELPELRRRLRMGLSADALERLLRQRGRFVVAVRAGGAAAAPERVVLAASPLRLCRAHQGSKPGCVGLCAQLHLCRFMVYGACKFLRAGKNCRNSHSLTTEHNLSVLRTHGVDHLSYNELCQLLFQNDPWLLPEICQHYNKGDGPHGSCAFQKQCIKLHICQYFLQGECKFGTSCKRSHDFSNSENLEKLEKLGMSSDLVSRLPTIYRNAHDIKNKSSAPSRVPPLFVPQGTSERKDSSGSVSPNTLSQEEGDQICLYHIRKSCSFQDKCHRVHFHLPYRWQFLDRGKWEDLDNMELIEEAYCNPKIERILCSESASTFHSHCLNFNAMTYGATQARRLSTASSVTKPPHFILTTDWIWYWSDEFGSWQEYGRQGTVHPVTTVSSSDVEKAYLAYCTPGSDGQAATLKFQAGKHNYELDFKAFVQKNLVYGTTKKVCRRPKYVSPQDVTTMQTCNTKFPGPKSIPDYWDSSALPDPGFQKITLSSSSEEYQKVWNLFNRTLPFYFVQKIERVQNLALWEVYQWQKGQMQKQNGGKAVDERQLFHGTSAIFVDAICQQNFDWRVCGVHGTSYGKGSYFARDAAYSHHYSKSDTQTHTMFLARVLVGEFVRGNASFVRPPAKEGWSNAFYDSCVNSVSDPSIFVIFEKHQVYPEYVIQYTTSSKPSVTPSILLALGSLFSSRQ", "assay": "PARP panel: ADP-ribosylation of SRPK2 using 6-a-NAD+"}},
  "data": [
    {"smiles": "Cc1c(-c2ccnc(C(F)(F)F)c2)ccc2c1CCNC2=O", "note": "[Compound 22, 5-methyl-6-(2-(trifluoromethyl)pyridin-4-yl)-3,4-dihydroisoquinolin-1(2H)-one]", "values": [
      {"measurement": "selectivity for PARP10 over PARP11", "setting": "PARP10cat", "result": 29, "unit": "fold"},
      {"measurement": "improvement in selectivity for PARP10 over PARP11 compared to parent compound", "setting": "PARP10cat; 12 vs 8, 14 vs 3, 20, 22 vs 16, 23, 24 vs 15", "result": "~2", "unit": "fold"},
      {"measurement": "PARP10cat pIC50 ± S.E.M.", "setting": "PARP10cat; ADP-ribosylation of SRPK2, NAD+ 100 μM", "result": "5.74 ± 0.02"},
      {"measurement": "PARP11/PARP10", "setting": "PARP10cat; ratio of IC50 values, PARP11 over PARP10cat", "result": 29},
      {"measurement": "IC50", "setting": "PARP14cat-wwe", "result": 60.5, "unit": "µM"},
      {"measurement": "PARP14cat-wwe pIC50 ± S.E.M.", "setting": "PARP14cat-wwe", "result": "4.22 ± 0.04"},
      {"measurement": "IC50", "setting": "PARP5bcat; 6-a-NAD+", "result": "> 100", "unit": "µM"},
      {"measurement": "PARP/PARP10", "setting": "PARP5bcat; PARP5bcat over PARP10cat", "result": ">>37"},
      {"measurement": "inhibition of PARP 5b", "setting": "PARP5bcat; up to 100 μM", "result": "does not inhibit"},
      {"measurement": "IC50", "setting": "PARP8; 6-a-NAD+", "result": "> 30", "unit": "µM"},
      {"measurement": "PARP/PARP10", "setting": "PARP8; PARP8 over PARP10cat", "result": ">10"},
      {"measurement": "IC50", "setting": "PARP12; 6-a-NAD+", "result": "> 30", "unit": "µM"},
      {"measurement": "PARP/PARP10", "setting": "PARP12; PARP12 over PARP10cat", "result": ">10"}
    ]}
  ]
}
